Our source for the viability, T/C and IC50 values is PubChem BioAssay AID2060495 (Molecular Pharmacology Branch, DTP, NCI, 2025).

Several values for one entry are separate records, joined by “and”; a condition that tells them apart may be missing. Equal values may be shown once. Bounds are passed on as bounds.

The test concerns 521955-158-R2-J5-PDC complex spheroid viability. The test can be described thus: Anticancer human tumor 521955-158-R2-J5-PDC patient-derived pancreatic carcinoma cell line growth inhibition [GQUAD]. Particulars: for viability, T/C: stronger effect = lower value. The text has this: DNA G-quadruplex Stabilizer Agents in Combinations in Complex Spheroids
A high-throughput screen of multi-cell type tumor spheroids was designed to identify active combinations of DNA G-quadruplex stabilizer agents and targeted small molecules. Complex spheroids include a stromal component modeled by human endothelial cells (HUVEC) and fibroblasts modeled by human mesenchymal stem cells (MSCs). The concentration ranges selected for each drug and investigational agent were based upon clinically achievable concentrations if the clinical Cmax of the agent was known.
Compounds. The drugs and investigational agents: pidnarulex (CX-5461; NSC782164), APTO-253 (NSC789042), BRACO-19 (NSC847499), peposertib (NSC802822), ceralasertib (NSC780249), elimusertib (NSC800525), camonsertib (NSC841442), AZD-1390 (NSC803789), olaparib (NSC753686), talazoparib (NSC767125), ART-558 (NSC835418), sotorasib (NSC818433), MRTX-1133 (NSC836407), SN-38 (NSC673596), topotecan (NSC609699), etoposide (NSC141540), doxorubicin (NSC123127), gemcitabine (NSC613327), 5-fluorouracil (NSC19893), paclitaxel (NSC125973), vemurafenib (NSC761431), panobinostat (NSC761190), R-306465 (JNJ-16241199; NSC773264), adavosertib (NSC754352), TP-3654 (NSC805149), carboplatin (NSC241240), KSQ-4279 (NSC840948), and staurosporine (NSC755774) were obtained from the National Cancer Institute (NCI) Developmental Therapeutics Program Chemical Repository (34). The FDA-approved anticancer drug set is available from the NCI Developmental Therapeutics Program. […] The stock solutions were prepared in dimethyl sulfoxide (DMSO, Sigma-Aldrich, St. Louis, MO, cat. D2650) at 800-fold the tested concentration and stored at -70 degrees C prior to their use. All drugs and investigational agents were tested over a range starting from a high concentration at or near the clinical Cmax and decreasing in half-log increments. If the clinical Cmax for an agent had not been determined, the highest concentration tested was 10 microM.
2.3 Cell Culture. All cells were maintained in an incubator at 37 degrees C and 5% CO2 with 95% humidity. The PDC lines were cultured according to standard operating procedures established by the NCI PDMR. All PDCs were thawed and cultured in Matrigel-coated flasks prepared with a working solution of 1X Ham's F-12 nutrient mix, without supplementation (Invitrogen, cat. 11765054), 100 U/mL penicillin-streptomycin (Invitrogen, cat. 15140122), and 2.5% Matrigel (Corning Inc., cat. 354248) for the first three passages. The 857933-349-R-J2-PDC line was cultured in 6C/Colon 1B media, which includes advanced DMEM/F-12 (Thermo Fisher Scientific, cat. 12634028), 10 mM HEPES (Thermo Fisher Scientific, cat. 15630080), 1X GlutaMAX supplement (Thermo Fisher Scientific, cat. 35050061), 0.1 mg/mL primocin (InvivoGen, cat. ant-pm-2), 10% defined fetal bovine serum, heat inactivated (HyClone Laboratories Inc., cat. SH30070.03HI), 50% L-WRN conditioned media (ATCC, cat. CRL-3276), 1.25 mM N-Acetyl-L-cysteine (Sigma-Aldrich, cat. A9165), 10 mM nicotinamide (Sigma-Aldrich, cat. N0636), 1X B-27 supplement (Thermo Fisher Scientific, cat. 17504044), 1X N-2 supplement (Thermo Fisher Scientific, cat. 17502048), 10 microM Y-27632 dihydrochloride (Tocris Bioscience, cat. 1254), and 50 ng/mL human EGF recombinant protein (Thermo Fisher Scientific, cat. PHG0311). The 485176-168-R4-J1-PDC line was cultured in Panc media, which includes all 6C/Colon 1B media components plus 100 ng/mL human FGF-10 (Thermo Fisher Scientific, cat. 100-26), 500 nM SB-431542 (Selleckchem, cat. S1067), and gastrin (Tocris, cat. 3006).
[…]
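Further: spheroids exposed to agents for one week before reading.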

In the case of `O=C(NO)c1cnc(N2CCN(S(=O)(=O)c3ccc4ccccc4c3)CC2)nc1`, the viability, T/C (usually the ratio of treated to control) is 120% and 129% and 128% (compound 0.0316 µM); 106% and 103% and 98.8% (compound 0.1 µM); 97.3% and 66.4% and 48.3% (compound 0.316 µM); 42.6% and 28.9% and 15% (compound 1 µM); 0.27% and 0.42% and 0.06% (compound 3.16 µM); 0.25% and 0.27% and 0.09% (compound 10 µM). The IC50 (as a rule, the concentration at which inhibition is half-maximal) (curve of compound) was 838 nM and 501 nM and 307 nM.
Regarding `O=C(NO)c1cnc(N2CCN(S(=O)(=O)c3ccc4ccccc4c3)CC2)nc1` + Cc1cnc(CNC(=O)c2c(=O)c3ccc(N4CCCN(C)CC4)nc3n3c2sc2ccccc23)cn1, the IC50 was 233 nM (curve of first compound, second compound 0.0316 µM); 167 nM (curve of first compound, second compound 0.1 µM); less than 31.6 nM (curve of first compound, second compound 0.316 µM); less than 31.6 nM (curve of first compound, second compound 1 µM); less than 31.6 nM (curve of first compound, second compound 3.16 µM); less than 31.6 nM (curve of first compound, second compound 10 µM). The viability, T/C by setting is: (second compound 0.0316 µM, first compound 0.0316 µM) 106%; (second compound 0.0316 µM, first compound 0.1 µM) 78.9%; (second compound 0.0316 µM, first compound 0.316 µM) 42.1%; (second compound 0.0316 µM, first compound 1 µM) 5.64%; (second compound 0.0316 µM, first compound 3.16 µM) 0.04%; (second compound 0.0316 µM, first compound 10 µM) 0.1%. In addition, the viability, T/C by setting is: (second compound 0.1 µM, first compound 0.0316 µM) 53.6%; (second compound 0.1 µM, first compound 0.1 µM) 51.4%; (second compound 0.1 µM, first compound 0.316 µM) 47%; (second compound 0.1 µM, first compound 1 µM) 6.79%; (second compound 0.1 µM, first compound 3.16 µM) 0.05%; (second compound 0.1 µM, first compound 10 µM) 0.08%. The viability, T/C is 27.5% (second compound 0.316 µM, first compound 0.0316 µM); 36.1% (second compound 0.316 µM, first compound 0.1 µM); 29.8% (second compound 0.316 µM, first compound 0.316 µM); 1.02% (second compound 0.316 µM, first compound 1 µM); 0.05% (second compound 0.316 µM, first compound 3.16 µM); 0.07% (second compound 0.316 µM, first compound 10 µM). Besides, the viability, T/C reads like this: (second compound 1 µM, first compound 0.0316 µM) 20.1%; (second compound 1 µM, first compound 0.1 µM) 22.9%; (second compound 1 µM, first compound 0.316 µM) 12.9%; (second compound 1 µM, first compound 1 µM) 0.1%; (second compound 1 µM, first compound 3.16 µM) 0.04%; (second compound 1 µM, first compound 10 µM) 0.08%. For the same molecule, the viability, T/C (second compound 3.16 µM, first compound 0.0316 µM) is 11.7%; the viability, T/C (second compound 3.16 µM, first compound 0.1 µM) is 17.4%; the viability, T/C (second compound 3.16 µM, first compound 0.316 µM) is 4.19%; the viability, T/C (second compound 3.16 µM, first compound 1 µM) is 0.1%; the viability, T/C (second compound 3.16 µM, first compound 3.16 µM) was 0.07%; the viability, T/C (second compound 3.16 µM, first compound 10 µM) is 0.11%. The viability, T/C by setting is: (second compound 10 µM, first compound 0.0316 µM) 11.8%; (second compound 10 µM, first compound 0.1 µM) 8.03%; (second compound 10 µM, first compound 0.316 µM) 2.82%; (second compound 10 µM, first compound 1 µM) 0.14%; (second compound 10 µM, first compound 3.16 µM) 0.15%; (second compound 10 µM, first compound 10 µM) 0.18%.
On to `CC(C)n1c(=O)n(C)c2cnc3cc(F)c(-c4ccc(OCCCN5CCCCC5)nc4)cc3c21`, for which the viability, T/C is 115% (2×) and 100% (compound 0.0316 µM); 96.9% and 107% and 94.7% (compound 0.1 µM); 114% (2×) and 80.2% (compound 0.316 µM); 91.4% and 95.4% and 89.3% (compound 1 µM); 96.3% and 107% and 96.1% (compound 3.16 µM); 95.6% and 95.5% and 84.2% (compound 10 µM). Further, the IC50 (curve of compound) was more than 10000 nM.
Consider `O=C(c1cc(Cc2n[nH]c(=O)c3ccccc23)ccc1F)N1CCN(C(=O)C2CC2)CC1`, for which the viability, T/C reads like this: (compound 0.0316 µM) 96.2% and 106% and 90.6%; (compound 0.1 µM) 93.6% and 88.4% and 70.8%; (compound 0.316 µM) 85.3% and 86.5% and 89.5%; (compound 1 µM) 65.6% and 88% and 66.8%; (compound 3.16 µM) 89.8% and 92.1% and 83.6%; (compound 10 µM) 91.2% and 81.6% and 80.2%. Besides, the IC50 (curve of compound) is more than 10000 nM.
